In patent US20190284162A1, “USE OF A DIFLUORO-(2-HYDROXYPROPYL)PYRIDINE COMPOUND AS A FUNGICIDE FOR CONTROL OF PHYTOPATHOGENIC FUNGI OF CORN” (Dow AgroSciences LLC, priority 2016, published 2019):

Assays:
Type in all cases: in vivo
[1] = test system: Puccinia polysora; assay: Field assessment of Puccinia polysora (PUCCPY), brown rust, in corn
Description: Field Assessment of Puccinia polysora (PUCCPY) in Corn:
(§1) A fungicidal treatment containing Compound I, applied alone in an EC formulation at 100 grams of active ingredient per hectare (g ai/ha) and tank mixed with an adjuvant (Agnique BP-420, 50% w/w at 0.3% v/v), was sprayed on corn plants (ZEAMX, P30R50 variety) twice at the growth stages 18 (8 leaves unfolded, application A) and 39 (stem elongation; prior to tassle emergence, application B) at rates of 25, 50, 100, 125 and 150 g ai/ha. The experimental plots were inoculated with brown rust 24 hr after each application. The treatment was part of an experimental trial designed as a randomized complete block with four replications and a plot of approximately 1×3 m. Compound I was applied at water volume of 200 L/ha, using a backpack precision plot sprayer (BKPCKAIR, 2 and 3 m band width, Flat Fan XR110.015 Nozzle) and pressurized at 45 psi.
(§2) Disease severity (percentage of visual diseased foliage on whole plot) was assessed six times (15-49 days after application B, DAAB). The disease infection was recorded following EPPO PP1/26 guideline prescriptions. Area under the disease progress curve (AUDPC) was calculated for each plot using the sets of recorded severity data. Relative AUDPC (% control based on AUDPC) was calculated as percent of the nontreated control.

[2] = test system: Cercospora zeae-maydis; assay: Field assessment of Cercospora zeae-maydis (CERCZM), grey leaf spot, in corn
Description: Field Assessment of Cercospora zeae-Maydis (CERCZM) in Corn:
as §1, with “Formula” for “P30R50”, “grey leaf spot” for “brown rust”
as §2

[3] = test system: Phaeosphaeria maydis; assay: Field assessment of Phaeosphaeria maydis (PHSPMA), phaeosphaeria leaf spot, in corn
Description: Field Assessment of Phaeosphaeria maydis (PHSPMA) in Corn:
as §1, with “phaeosphaeria leaf spot” for “brown rust”
as §2

[4] = test system: Exserohilum turcicum; assay: Field assessment of Exserohilum turcicum (SETOTU) in corn
Description: Field Assessment of Exserohilum turcicum (SETOTU) in Corn: A fungicidal treatment containing Compound I, tank mixed with an adjuvant (Agnique BP-420, 50% w/w at 0.3% v/v), was sprayed on corn plants once at the growth stage 51 (beginning tassel emergence) at rates of 50, 75, 100, and 150 g ai/ha. The treatment was part of an experimental trial designed as a randomized complete block with four replications. Compound I was applied at water volume of 140 L/ha, using a backpack precision plot sprayer. Disease severity was assessed as combined percent visual necrosis on leaves ear-1, ear and ear+1. Severity was assessed twice at 24 DAA1 (days after application 1) and 32 DAA1.

[5] = 25 g ai/ha, with adjuvant Agnique BP-420, two applications
[6] = 50 g ai/ha, with adjuvant Agnique BP-420, two applications
[7] = 100 g ai/ha, with adjuvant Agnique BP-420, two applications
[8] = 100 g ai/ha, without adjuvant, two applications
[9] = 125 g ai/ha, with adjuvant Agnique BP-420, two applications
[10] = 150 g ai/ha, with adjuvant Agnique BP-420, two applications

Question: Which results are given for `N#Cc1ccc(Oc2ccc(C(F)(F)C(O)(Cn3ncnc3S)c3ccc(F)cc3F)nc2)cc1` (centres unmarked) [Compound I, 4-((6-(2-(2,4-difluorophenyl)-1,1-difluoro-2-hydroxy-3-(5-mercapto-1H-1,2,4-triazol-1-yl)propyl)pyridin-3-yl)oxy)benzonitrile]?
Answer: Disease (% Control) PUCCPY, based on AUDPC [1, 5]: A (76-100); Disease (% Control) PUCCPY, based on AUDPC [1, 6]: A (76-100); Disease (% Control) PUCCPY, based on AUDPC [1, 7]: A (76-100); Disease (% Control) PUCCPY, based on AUDPC [1, 8]: A (76-100); Disease (% Control) PUCCPY, based on AUDPC [1, 9]: A (76-100); Disease (% Control) PUCCPY, based on AUDPC [1, 10]: A (76-100); Disease (% Control) CERCZM, based on AUDPC [2, 5]: B (51-75); Disease (% Control) CERCZM, based on AUDPC [2, 6]: B (51-75); Disease (% Control) CERCZM, based on AUDPC [2, 7]: B (51-75); Disease (% Control) CERCZM, based on AUDPC [2, 8]: C (26-50); Disease (% Control) CERCZM, based on AUDPC [2, 9]: A (76-100); Disease (% Control) CERCZM, based on AUDPC [2, 10]: A (76-100); Disease (% Control) PHSPMA, based on AUDPC [3, 5]: B (51-75); Disease (% Control) PHSPMA, based on AUDPC [3, 6]: B (51-75); Disease (% Control) PHSPMA, based on AUDPC [3, 7]: A (76-100); Disease (% Control) PHSPMA, based on AUDPC [3, 8]: B (51-75); Disease (% Control) PHSPMA, based on AUDPC [3, 9]: A (76-100); Disease (% Control) PHSPMA, based on AUDPC [3, 10]: A (76-100); Disease severity: combined visual necrosis on leaves ear-1, ear and ear+1 ([4]; 50 g ai/ha, 24 DAA1, tank mixed with Agnique BP-420, untreated control 36.1): 46.5%; Disease severity: combined visual necrosis on leaves ear-1, ear and ear+1 ([4]; 50 g ai/ha, 32 DAA1, tank mixed with Agnique BP-420, untreated control 50.4): 45.5%; Disease severity: combined visual necrosis on leaves ear-1, ear and ear+1 ([4]; 75 g ai/ha, 24 DAA1, tank mixed with Agnique BP-420, untreated control 36.1): 45.0%; Disease severity: combined visual necrosis on leaves ear-1, ear and ear+1 ([4]; 75 g ai/ha, 32 DAA1, tank mixed with Agnique BP-420, untreated control 50.4): 44.2%; Disease severity: combined visual necrosis on leaves ear-1, ear and ear+1 ([4]; 100 g ai/ha, 24 DAA1, tank mixed with Agnique BP-420, untreated control 36.1): 37.2%; Disease severity: combined visual necrosis on leaves ear-1, ear and ear+1 ([4]; 100 g ai/ha, 32 DAA1, tank mixed with Agnique BP-420, untreated control 50.4): 31.6%; Disease severity: combined visual necrosis on leaves ear-1, ear and ear+1 ([4]; 150 g ai/ha, 24 DAA1, tank mixed with Agnique BP-420, untreated control 36.1): 37.9%; Disease severity: combined visual necrosis on leaves ear-1, ear and ear+1 ([4]; 150 g ai/ha, 32 DAA1, tank mixed with Agnique BP-420, untreated control 50.4): 33.3%
